According to patent US8791264B2 (Purdue Pharma L.P., priority 2006, dated 2014):

What was measured:
[1] = target: T1, N-type calcium channel (NTCC) (Homo sapiens, UniProt Q00975); assay: FLIPR calcium mobilization assay for N-type calcium channel; assay type: cell-based; details: calcium mobilization in vitro assay; differentiated IMR32 cells
T1 construct: host or cells: IMR32 cells differentiated with dibutyryl cAMP and bromodeoxyuridine
Summary of the method: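 Differentiated IMR32 cells (8 days, dibutyryl cAMP and BrdU) loaded with 3 μM Fluo-4 during 90 mM KCl pre-stimulation, with compound at about 846 pM to 17 μM plus 5 μM nitrendipine. After washes in compound, FLIPR read basal fluorescence 315 s, then 45 s after KCl addition (final 90 mM).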

[2] = target: T2, recombinant rat L-type calcium channel (LTCC) subunits (α1c, α2δ, and β1) (Rattus norvegicus, UniProt P22002); assay: FLIPR calcium mobilization assay for L-type calcium channel; assay type: cell-based; details: calcium mobilization in vitro assay; HEK293 cells expressing rat LTCC
T2 construct: expressed in transfected cells
Summary of the method: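 HEK293 cells stably expressing rat LTCC (α1c, α2δ, β1), Fluo-4 loaded in pH 7.4 buffer with 5 mM CaCl2. Compound (about 846 pM to 17 μM final) applied 5 minutes before depolarization with 90 mM KCl final; FLIPR fluorescence recorded throughout.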

T1 sequence (Q00975 whole entry): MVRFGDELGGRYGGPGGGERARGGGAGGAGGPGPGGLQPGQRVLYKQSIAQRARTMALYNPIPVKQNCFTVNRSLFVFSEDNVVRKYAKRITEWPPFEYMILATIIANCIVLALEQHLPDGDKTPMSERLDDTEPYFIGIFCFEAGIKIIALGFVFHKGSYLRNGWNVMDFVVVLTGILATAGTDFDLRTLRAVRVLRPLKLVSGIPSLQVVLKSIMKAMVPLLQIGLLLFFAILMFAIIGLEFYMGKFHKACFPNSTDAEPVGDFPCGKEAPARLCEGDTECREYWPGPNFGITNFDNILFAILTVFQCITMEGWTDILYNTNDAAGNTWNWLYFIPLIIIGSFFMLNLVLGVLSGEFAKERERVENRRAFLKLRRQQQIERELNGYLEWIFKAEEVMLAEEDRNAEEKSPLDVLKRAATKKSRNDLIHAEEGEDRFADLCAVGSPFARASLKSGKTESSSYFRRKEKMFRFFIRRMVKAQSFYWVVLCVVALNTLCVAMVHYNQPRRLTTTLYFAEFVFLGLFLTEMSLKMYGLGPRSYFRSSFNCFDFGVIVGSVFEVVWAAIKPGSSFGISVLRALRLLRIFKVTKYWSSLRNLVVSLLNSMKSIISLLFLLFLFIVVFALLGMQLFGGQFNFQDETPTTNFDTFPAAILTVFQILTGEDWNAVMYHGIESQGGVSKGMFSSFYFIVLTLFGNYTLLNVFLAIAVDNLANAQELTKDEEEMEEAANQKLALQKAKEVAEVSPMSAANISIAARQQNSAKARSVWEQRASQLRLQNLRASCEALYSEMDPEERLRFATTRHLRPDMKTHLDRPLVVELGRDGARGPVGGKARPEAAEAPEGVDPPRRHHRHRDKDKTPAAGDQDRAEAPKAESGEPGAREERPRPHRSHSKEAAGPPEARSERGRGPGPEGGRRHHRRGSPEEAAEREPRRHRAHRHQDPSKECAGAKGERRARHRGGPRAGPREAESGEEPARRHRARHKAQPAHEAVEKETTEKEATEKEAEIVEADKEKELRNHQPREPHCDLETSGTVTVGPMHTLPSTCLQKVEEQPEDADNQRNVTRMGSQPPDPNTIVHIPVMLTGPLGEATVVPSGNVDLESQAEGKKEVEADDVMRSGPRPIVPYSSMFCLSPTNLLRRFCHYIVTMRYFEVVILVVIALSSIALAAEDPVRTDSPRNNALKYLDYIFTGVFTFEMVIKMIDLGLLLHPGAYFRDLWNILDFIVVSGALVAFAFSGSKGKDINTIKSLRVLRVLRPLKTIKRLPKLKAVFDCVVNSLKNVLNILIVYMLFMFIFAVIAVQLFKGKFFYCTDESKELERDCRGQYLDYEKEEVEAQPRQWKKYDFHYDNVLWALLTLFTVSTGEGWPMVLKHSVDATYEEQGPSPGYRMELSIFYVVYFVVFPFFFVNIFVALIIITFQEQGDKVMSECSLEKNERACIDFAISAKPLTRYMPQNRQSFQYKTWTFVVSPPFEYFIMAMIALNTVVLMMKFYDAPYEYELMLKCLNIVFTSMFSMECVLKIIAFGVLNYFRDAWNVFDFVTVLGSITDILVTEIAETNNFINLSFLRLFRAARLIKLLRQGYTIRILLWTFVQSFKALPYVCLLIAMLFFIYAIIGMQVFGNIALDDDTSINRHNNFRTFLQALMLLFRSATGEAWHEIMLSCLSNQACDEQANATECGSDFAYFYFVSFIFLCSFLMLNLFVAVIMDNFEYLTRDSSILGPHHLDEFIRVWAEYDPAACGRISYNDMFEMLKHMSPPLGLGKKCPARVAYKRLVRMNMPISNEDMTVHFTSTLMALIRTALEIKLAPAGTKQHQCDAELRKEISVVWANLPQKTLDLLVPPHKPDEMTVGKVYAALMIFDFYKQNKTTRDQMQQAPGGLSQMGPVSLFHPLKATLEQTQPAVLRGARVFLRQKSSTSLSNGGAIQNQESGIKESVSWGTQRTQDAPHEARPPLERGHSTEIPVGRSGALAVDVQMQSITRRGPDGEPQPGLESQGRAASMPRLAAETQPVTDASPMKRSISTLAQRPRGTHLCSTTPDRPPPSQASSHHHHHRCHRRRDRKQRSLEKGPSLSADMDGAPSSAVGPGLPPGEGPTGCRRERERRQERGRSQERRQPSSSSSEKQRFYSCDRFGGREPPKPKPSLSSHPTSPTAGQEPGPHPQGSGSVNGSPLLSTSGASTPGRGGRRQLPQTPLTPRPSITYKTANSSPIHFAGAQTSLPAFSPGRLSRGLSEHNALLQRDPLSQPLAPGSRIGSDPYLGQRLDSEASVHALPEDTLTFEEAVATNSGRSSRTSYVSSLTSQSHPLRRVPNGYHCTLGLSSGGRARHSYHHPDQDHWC
T1 sequence (P54289 25-956 partner limits assumed): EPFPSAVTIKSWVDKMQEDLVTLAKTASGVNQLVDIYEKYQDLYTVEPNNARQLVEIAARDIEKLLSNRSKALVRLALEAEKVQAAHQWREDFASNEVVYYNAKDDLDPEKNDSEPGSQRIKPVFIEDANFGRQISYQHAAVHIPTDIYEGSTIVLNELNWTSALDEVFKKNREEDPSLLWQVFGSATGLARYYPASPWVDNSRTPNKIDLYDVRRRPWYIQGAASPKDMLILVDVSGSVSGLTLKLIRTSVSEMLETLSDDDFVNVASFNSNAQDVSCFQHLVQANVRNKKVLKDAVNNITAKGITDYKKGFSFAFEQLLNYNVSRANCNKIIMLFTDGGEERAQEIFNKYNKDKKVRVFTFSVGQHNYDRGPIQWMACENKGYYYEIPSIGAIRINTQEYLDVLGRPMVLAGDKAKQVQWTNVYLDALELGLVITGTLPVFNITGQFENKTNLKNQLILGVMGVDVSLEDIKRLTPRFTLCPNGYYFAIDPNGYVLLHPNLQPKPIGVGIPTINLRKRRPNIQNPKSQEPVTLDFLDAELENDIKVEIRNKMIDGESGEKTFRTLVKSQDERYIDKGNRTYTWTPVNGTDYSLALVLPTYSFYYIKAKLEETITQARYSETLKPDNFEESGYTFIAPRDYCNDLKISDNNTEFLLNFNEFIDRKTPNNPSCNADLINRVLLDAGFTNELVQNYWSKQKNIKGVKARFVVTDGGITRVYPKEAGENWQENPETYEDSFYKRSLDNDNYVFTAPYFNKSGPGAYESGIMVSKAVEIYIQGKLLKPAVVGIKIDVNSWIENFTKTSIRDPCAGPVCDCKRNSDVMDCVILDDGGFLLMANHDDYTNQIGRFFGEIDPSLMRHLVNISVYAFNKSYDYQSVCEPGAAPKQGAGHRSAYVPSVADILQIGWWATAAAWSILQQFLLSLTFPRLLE
T1 sequence (P54289 957-1103 partner limits assumed): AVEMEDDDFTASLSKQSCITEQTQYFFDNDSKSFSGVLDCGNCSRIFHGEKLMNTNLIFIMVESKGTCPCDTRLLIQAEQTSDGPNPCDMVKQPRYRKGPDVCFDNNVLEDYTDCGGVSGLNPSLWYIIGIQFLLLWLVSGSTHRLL
T1 sequence (P54284 whole entry partner): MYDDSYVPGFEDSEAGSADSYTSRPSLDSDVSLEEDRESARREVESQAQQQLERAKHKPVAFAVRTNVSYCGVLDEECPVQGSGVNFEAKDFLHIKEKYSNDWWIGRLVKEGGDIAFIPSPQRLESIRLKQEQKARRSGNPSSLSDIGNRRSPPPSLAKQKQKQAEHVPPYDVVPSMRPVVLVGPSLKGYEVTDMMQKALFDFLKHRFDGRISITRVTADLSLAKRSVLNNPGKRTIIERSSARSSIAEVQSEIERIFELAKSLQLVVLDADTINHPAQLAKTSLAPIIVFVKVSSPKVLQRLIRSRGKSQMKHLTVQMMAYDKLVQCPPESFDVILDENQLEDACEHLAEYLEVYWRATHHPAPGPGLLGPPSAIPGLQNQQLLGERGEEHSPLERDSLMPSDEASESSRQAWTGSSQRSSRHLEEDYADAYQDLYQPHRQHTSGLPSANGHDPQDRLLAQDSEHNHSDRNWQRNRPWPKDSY

| IC50 [1] | IC50 [2] | SMILES |
| --- | --- | --- |
| 0.82 µM | > 20 µM | CC(C)N(C1CCN(C(=O)CCNc2ccc(F)cc2Cl)CC1)S(=O)(=O)c1cccc(C(F)(F)F)c1 [N-{1-[3-(2-chloro-4-fluoro-phenylamino)-propionyl]-piperidin-4-yl}-N-isopropyl-3-trifluoromethyl-benzenesulfonamide] |
| 0.55 µM | 9.65 µM | CC(C)N(C1CCN(C(=O)CCNc2ccccc2F)CC1)S(=O)(=O)c1cccc(C(F)(F)F)c1 [N-{1-[3-(2-fluoro-phenylamino)-propionyl]-piperidin-4-yl}-N-isopropyl-3-trifluoromethyl-benzenesulfonamide] |
| 0.39 µM | > 20 µM | CC(C)N(C1CCN(C(=O)CCNc2ccc(F)c(F)c2)CC1)S(=O)(=O)c1cccc(C(F)(F)F)c1 [N-{1-[3-(3,4-difluoro-phenylamino)-propionyl]-piperidin-4-yl}-N-isopropyl-3-trifluoromethyl-benzenesulfonamide] |
| 0.82 µM | > 20 µM | COc1cc(NCCC(=O)N2CCC(N(C(C)C)S(=O)(=O)c3cccc(C(F)(F)F)c3)CC2)cc(OC)c1 [N-{1-[3-(3,5-dimethoxy-phenylamino)-propionyl]-piperidin-4-yl}-N-isopropyl-3-trifluoromethyl-benzenesulfonamide] |
| 0.9 µM | > 20 µM | CC(C)N(C1CCN(C(=O)CCNc2cccc(Cl)c2)CC1)S(=O)(=O)c1cccc(C(F)(F)F)c1 [N-{1-[3-(3-chloro-phenylamino)-propionyl]-piperidin-4-yl}-N-isopropyl-3-trifluoromethyl-benzenesulfonamide] |
| 0.93 µM | > 20 µM | CC(C)N(C1CCN(C(=O)CCNc2ccc(Cl)cc2)CC1)S(=O)(=O)c1cccc(C(F)(F)F)c1 [N-{1-[3-(4-chloro-phenylamino)-propionyl]-piperidin-4-yl}-N-isopropyl-3-trifluoromethyl-benzenesulfonamide] |
| 0.62 µM | > 20 µM | COc1cc(NCCC(=O)N2CCC(N(C(C)C)S(=O)(=O)c3cccc(C(F)(F)F)c3)CC2)ccc1F [N-{1-[3-(4-fluoro-3-methoxy-phenylamino)-propionyl]-piperidin-4-yl}-N-isopropyl-3-trifluoromethyl-benzenesulfonamide] |
| 0.53 µM | 3.22 µM | CC(C)N(C1CCN(C(=O)CCNc2ccc(F)cc2)CC1)S(=O)(=O)c1cccc(C(F)(F)F)c1 [N-{1-[3-(4-fluoro-phenylamino)-propionyl]-piperidin-4-yl}-N-isopropyl-3-trifluoromethyl-benzenesulfonamide] |
| 0.42 µM | 7.48 µM | CC(C)N(C1CCN(C(=O)CCN(C)Cc2ccccc2)CC1)S(=O)(=O)c1cccc(C(F)(F)F)c1 [N-{1-[3-(benzyl-methyl-amino)-propionyl]-piperidin-4-yl}-N-isopropyl-3-trifluoromethyl-benzenesulfonamide] |
